The source of these data is PubChem BioAssay AID485301 (The Scripps Research Institute Molecular Screening Center, 2010).

Some targets named below: NS3h 1b (J4); NS3h 1b (con1); NS3h 2a (JFH1).
Common to all, as to assay: NS3 helicase inhibition across HCV genotypes – biochemical, real-time fluorescence, genotypes 1b J4, 1b con1, 2a JFH1, selectivity assay, late-stage follow-up (AID 485301)
Conditions in all cases: NS3 helicase unwinding, Cy5 molecular beacon fluorescence

The source made the active and inactive calls.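 Rule for the calls: active = IC50 of 10 µM or less against the helicase of at least one HCV strain tested; inactive = the rest.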

As a reminder, the IC50 is the point on the concentration scale where inhibition reaches its midpoint. For `CCOc1cccc(C2C(C(=O)c3ccc(C)o3)=C(O)C(=O)N2Cc2ccccc2)c1` (stereo not drawn), the IC50 on NS3h 1b (J4), at NS3h 1b (con1) and at NS3h 2a (JFH1) was > 500 µM (inactive) in each case.
Regarding `COc1ccc(/C=N/NC(=O)c2cc(O)c(O)c(O)c2)cc1COc1ccc(C(=O)OCC(C)C)cc1`, the IC50 at NS3h 1b (J4) and on NS3h 1b (con1) was > 500 µM (inactive) throughout.
As for `Cc1ccc(C(=O)C2=C(O)C(=O)N(Cc3ccco3)C2c2cccc(Cl)c2)o1` (stereo not drawn), the IC50 on NS3h 1b (J4), on NS3h 1b (con1) and on NS3h 2a (JFH1) was > 500 µM (inactive) each time.
With `COc1ccc(C=NNC(=O)c2cc(O)c(O)c(O)c2)cc1COc1ccc(C(=O)OCC(C)C)cc1`, the IC50 on NS3h 1b (J4), on NS3h 1b (con1) and on NS3h 2a (JFH1) was > 500 µM (inactive) in each case.
As to `CCCCCOc1ccc(C2C(C(=O)c3ccc(C)o3)=C(O)C(=O)N2c2cc(C)on2)cc1` (stereo not drawn), the IC50 at NS3h 1b (J4), at NS3h 1b (con1) and at NS3h 2a (JFH1) was > 500 µM (inactive) each time.
On to `Cc1cc(N2C(=O)C(O)=C(C(=O)c3ccc(C)o3)C2c2ccc(OCc3ccccc3)cc2)no1` (stereo not drawn), for which the IC50 on NS3h 1b (J4), at NS3h 1b (con1) and at NS3h 2a (JFH1) was > 500 µM (inactive) each time.
Take `COc1cccc(-n2c(SCc3cc(=O)oc4cc(O)c(O)cc34)nc3ccccc3c2=O)c1`: the IC50 at NS3h 1b (J4), on NS3h 1b (con1) and on NS3h 2a (JFH1) was > 500 µM (inactive) in each case.
Regarding `COc1cc(C2C(C(=O)c3ccc(C)o3)=C(O)C(=O)N2c2cc(C)on2)ccc1OCc1ccccc1` (stereo not drawn), the IC50 on NS3h 1b (J4), on NS3h 1b (con1) and at NS3h 2a (JFH1) was > 500 µM (inactive) throughout.
